Experimental data from patent US20170321282A1, “IMPROVED TREATMENTS OF CANCER RESISTANT TO TAXOIDS” (INSTITUT GUSTAVE ROUSSY, priority 2014, published 2017).

Key:
parental IGR-CaP1 cells = test: Colony formation (clonogenicity) assay, parental cells; assay type: cell-based, human; settings: 25 μM LY2157299 alone, 72 h pretreatment, stained 2 weeks later
Method: (§1) Colony formation assay. Cells were pretreated with 25 μM LY2157299 or vehicle for 72 hours. Then, cells were treated with Docetaxel and/or 25 μM LY2157299, control cells were treated with vehicle. Docetaxel was used at 12 nM in parental IGR-CaP1 and 100 nM in resistant IGR-CaP1-R100. Cells were stained with Crystal Violet 2 weeks later. Data are represented as mean±SD. […] Representative cell colonies obtained in each condition is shown.
(§2) IGR-CaP1 and IGR-CaP1-R cells were plated in 6 well plates for 24 hours. Cells were pre-treated with 25 μM LY2157299 or vehicle for 72 hours, and then co-treated with LY2157299 and docetaxel (12 nM for parental cells, 100 nM for resistant cells). After 2 weeks, clones were methanol fixed and stained using Crystal violet (sigma). Clones were counted using ImageJ software.

[1] = system: resistant IGR-CaP1-R100 cells; test: Colony formation (clonogenicity) assay, docetaxel-resistant cells; assay type: cell-based, human; settings: 25 μM LY2157299 alone, 72 h pretreatment, stained 2 weeks later
Method: as §1, §2

[2] = system: SHISA3 expression in IGR-CaP1 tumors; test: SHISA3 mRNA expression by quantitative PCR in docetaxel-sensitive xenograft tumors; assay type: in vivo, nude athymic mice; settings: docetaxel vs vehicle
Text: (§3) FIG. 1: Expression of SHISA3 in docetaxel-resistant prostate cancer cells and in other cancers A. Real-time qRT-PCR showing the inhibition of SHISA3 gene expression in docetaxel-resistant IGR-CaP1-R and PC3-R cells. B. Whole cell extracts of parental and drug-resistant cells were subjected to immunoblotting with antibodies specific for SHISA3 or β-actin (loading control). Arrows indicate specific bands corresponding to SHISA3, star indicates a non-specific band. C. […] D-E. SHISA3 mRNA was assessed by determining ΔCt in normal tissues and in several solid tumors. Results were normalized to the universal RNA included in each panel. In D, out of all the tested tissues for SHISA3 expression, only tissues with the highest expression were shown. In E, the bars represent the mean. P value was derived from the two-tailed Student's t test. F. Subcellular localization after transfection of SHISA3-Flag-GFP in HEK cells. Cells were analyzed by confocal microscopy. GFP stained the transfected cells, SHISA3 was labeled with anti-SHISA3 antibody (red) and nucleus was stained with Dapi. […] Secondary antibodies were used as followed: Alexa-568 for SHISA3 and Alexa-647 for Calnexin and GM130. G. SHISA3 mRNA expression was assessed in vivo on nude athymic mice models. […] SHISA3 expression has been obtained by quantitative PCR and normalized by its expression in a control sample of Universal RNA. […]

[3] = system: SHISA3 expression in IGR-CaP1-R25 tumors; test: SHISA3 mRNA expression by quantitative PCR in docetaxel-resistant xenograft tumors; assay type: in vivo, nude athymic mice; settings: docetaxel vs vehicle
Text: as §3

[4] = system: parental IGR-CaP1 and PC3 cells; test: EMT induction by TGFβ1, immunoblot of SHISA3 and EMT markers; assay type: cell-based, human; settings: 10 ng/ml TGFβ1, 5 days
Text: A. Schematic structure of SHISA3 and SHISA3-Flag sharing a signal peptide (black box), an amino-terminal CRD (blue box), a predicted transmembrane segment (TM), and a carboxy-terminal proline-rich region (Grey box). The position of the FLAG tag (red box) is indicated. B. SHISA3 and endogenous TGFβR2 interaction. Cells extracts from IGR-CaP1, PC3 and HEK cells transfected with SHISA3-Flag were immunoprecipitated with anti-TGFβR2, anti-EGFR, anti-Flag antibodies or IgG as control and analyzed by immunoblot using anti-TGFβR2, anti-EGFR and anti-SHISA3 antibodies. Input represents 10% of the IP. C. Co-localization of SHISA3 and TGFβR2 in cytoplasmic granules and speckles at the membrane. Subcellular localizations of SHISA3 and TGFβR2 were analyzed by confocal microscopy after co-transfection of SHISA3-Flag and HA-TGFβR2 in HEK cells using anti-SHISA3 and anti-TGFβR2 primary antibodies, and Alexa-568- and Alexa-647-conjugated secondary antibodies respectively. Nuclei were labeled with Dapi. Overlapped fluorescent signals (yellow) indicated co-localized proteins. D. SHISA3 and EMT markers expression 5 days after cell treatment with TGFβ1. […] Quantification of bands relative to beta actin is shown.
2,5.10^4 IGR-CaP1 cells and 5.10^4 PC3 cells were plated in 6-well plates for 24 hours then transiently transfected with 10 nM synthetic siRNA targeting SHISA3 gene (Stealth RNAi™, siSHISA3-94: HSS152694, siSHISA3-95: HSS152695, and siSHISA3-96: HSS152696) using lipofectamine RNAiMax (Invitrogen) or treated with 10 ng/ml TGFβ1. After 36 hours, a second treatment was performed in order to maintain EMT induction over 5 days. Negative controls were obtained by treating cells with siRNA negative controls (siNT) (Invitrogen) or TGFβ1 vehicle. Whole cell extracts were prepared in RIPA buffer complemented with proteases inhibitors (Roche) and phosphatase inhibitors (Sigma).
Fifty μg of lysates were used for Western-Blot probed with specific antibodies: SHISA3 (Abgent), E-cadherin (BD Biosciences, clone 36), N-Cadherin (BD Biosciences, Clone 32), β-catenin (Santa Cruz, clone 12F7), Vimentin (BD Pharmingen, clone RV202), Occludin (Life Technologies, Clone OC-3F10), Plakoglobin (Sigma-Aldrich, Clone 15F11), Snail (Cell Signaling, Clone C15D3), ZEB1 (Cell Signaling, D80D), EGFR (Cell Signaling, Clone D38B1), TGFβR2 (Santa Cruz, Clone E-6), Ubiquitin (Santa Cruz, Clone P4D1), Flag (Sigma, M2). β-actin (Sigma-Aldrich, Clone AC-15) was used as a loading control. Immunoblot analyses were performed using the enhanced chemoluminescence-based detection kit (Pierce).

Cc1cccc(-c2nn3c(c2-c2ccnc4ccc(C(N)=O)cc24)CCC3)n1 [LY2157299]
survival of parental cells (colony formation) (parental IGR-CaP1 cells): did not affect the survival
survival of resistant cells (colony formation) [1]: did not affect the survival

CC(=O)O[C@@]12CO[C@@H]1C[C@H](O)[C@@]1(C)C(=O)[C@H](O)C3=C(C)[C@@H](OC(=O)[C@H](O)[C@@H](NC(=O)OC(C)(C)C)c4ccccc4)C[C@@](O)([C@@H](OC(=O)c4ccccc4)[C@H]21)C3(C)C [docetaxel]
SHISA3 gene expression in tumors [2]: strong decrease
SHISA3 gene expression in tumors [3]: did not affect its expression

TGFβ: TGFβ1 purchased from R&D Systems
CDH1 expression [4]: decrease
CDH2 expression [4]: increase
VIM expression [4]: increase
SHISA3 expression ([4]; vs control cells): decrease
